The source of these data is patent US20240150293A1, “SPIROCYCLOHEXANE DERIVATIVES, PHARMACEUTICAL COMPOSITIONS CONTAINING THEM AND THEIR USES AS ANTI-APOPTOTIC INHIBITORS” (LES LABORATOIRES SERVIER, priority 2021, published 2024).

Usually Ki stands for the dissociation constant of the complex between target and ligand, obtained from inhibition or displacement.

Sequence of Mcl-1 protein (Q07820 whole entry): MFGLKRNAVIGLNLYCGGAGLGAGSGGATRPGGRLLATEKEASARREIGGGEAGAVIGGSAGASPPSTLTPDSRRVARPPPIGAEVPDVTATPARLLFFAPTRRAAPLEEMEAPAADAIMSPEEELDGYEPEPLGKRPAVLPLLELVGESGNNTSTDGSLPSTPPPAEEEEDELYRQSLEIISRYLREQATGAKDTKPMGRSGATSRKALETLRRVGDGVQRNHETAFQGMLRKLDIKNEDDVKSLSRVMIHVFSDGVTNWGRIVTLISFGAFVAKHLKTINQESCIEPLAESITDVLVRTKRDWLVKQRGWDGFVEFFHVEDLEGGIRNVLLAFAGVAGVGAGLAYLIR

This assay addresses Mcl-1 protein (UniProtKB Q07820) (Homo sapiens (Human), UniProt Q07820). Description: Inhibition of Mcl-1 by the fluorescence polarisation assay (Example A, Method A). Type of assay: binding. Particulars: fluorescence polarization assay. Summed up: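 Protein (5 nM) and fluorescein-tagged peptide tracer (1 nM) incubated with 11-point compound series for 2 h at room temperature in HEPES/NaCl/Tween 20 buffer, pH 7.4, 5% DMSO. Displacement read as decrease in polarisation; IC50 fitted by 4-parameter logistic, converted to Ki (cKi or eKi).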
A general note: Fluorescence polarisation rises when a labelled molecule tumbles more slowly, as on binding a larger partner.
With `O=C(O)[C@]1(Nc2cccc(Cl)c2)CC[C@@]2(CC1)c1ccccc1CC2CCCOC1CCOCC1` (some centres unmarked) [Example 467, (1r,4r)-4-(3-chloroanilino)-2′-{3-[(oxan-4-yl)oxy]propyl}-2′,3′-dihydrospiro[cyclohexane-1,1′-indene]-4-carboxylic acid], the Ki turned out to be 746 nM. As to `Cc1nc2c(c(OCCCC3Cc4ccccc4[C@]34CC[C@@](Nc3cccc(Cl)c3)(C(=O)O)CC4)n1)C(C)CC2` (some centres unmarked) [Example 468, (1r,4r)-4-(3-chloroanilino)-2′-{3-[(2,5-dimethyl-6,7-dihydro-5H-cyclopenta[d]pyrimidin-4-yl)oxy]propyl}-2′,3′-dihydrospiro[cyclohexane-1,1′-indene]-4-carboxylic acid], the Ki was found to be 234 nM.

For the compound `O=C(O)[C@]1(Nc2cccc(Cl)c2)CC[C@@]2(CC1)c1ccccc1CC2CCCOc1cccc2[nH]cnc12` (some centres unmarked) [Example 469, (1r,4r)-2′-{3-[(1H-benzimidazol-4-yl)oxy]propyl}-4-(3-chloroanilino)-2′,3′-dihydrospiro[cyclohexane-1,1′-indene]-4-carboxylic acid], the Ki came out at 324 nM.

Turning to `O=C(O)[C@]1(Nc2cccc(Cl)c2)CC[C@@]2(CC1)c1ccccc1CC2CCCOc1cccc2c1CCN2` (some centres unmarked) [Example 470, (1r,4r)-4-(3-chloroanilino)-2′-{3-[(2,3-dihydro-1H-indol-4-yl)oxy]propyl}-2′,3′-dihydrospiro[cyclohexane-1,1′-indene]-4-carboxylic acid], the Ki came out at 184 nM. For the compound `O=C(O)[C@]1(Nc2cccc(Cl)c2)CC[C@@]2(CC1)c1ccccc1CC2CCCOC1CCOc2ccccc21` (some centres unmarked) [Example 471, (1r,4r)-4-(3-chloroanilino)-2′-{3-[(3,4-dihydro-2H-1-benzopyran-4-yl)oxy]propyl}-2′,3′-dihydrospiro[cyclohexane-1,1′-indene]-4-carboxylic acid], the Ki came out at 620 nM.

Take `O=C(O)[C@]1(Nc2cccc(Cl)c2)CC[C@@]2(CC1)c1ccccc1CC2CCCOc1ccnc2c1CCCC2F` (some centres unmarked) [Example 473, (1r,4r)-4-(3-chloroanilino)-2′-{3-[(8-fluoro-5,6,7,8-tetrahydroquinolin-4-yl)oxy]propyl}-2′,3′-dihydrospiro[cyclohexane-1,1′-indene]-4-carboxylic acid]: the Ki came out at 81.9 nM. Consider `O=C(O)[C@]1(Nc2cccc(Cl)c2)CC[C@@]2(CC1)c1ccccc1CC2CCCOc1ccnc2c1CCCC2O` (some centres unmarked) [Example 474, (1r,4r)-4-(3-chloroanilino)-2′-{3-[(8-hydroxy-5,6,7,8-tetrahydroquinolin-4-yl)oxy]propyl}-2′,3′-dihydrospiro[cyclohexane-1,1′-indene]-4-carboxylic acid], for which the inhibitory constant (Ki) is 96 nM. For `O=C(O)[C@]1(Nc2cccc(Cl)c2)CC[C@@]2(CC1)c1ccccc1CC2CCCOc1ccnc2c1CCC2O` (some centres unmarked) [Example 475, (1r,4r)-4-(3-chloroanilino)-2′-{3-[(7-hydroxy-6,7-dihydro-5H-cyclopenta[b]pyridin-4-yl)oxy]propyl}-2′,3′-dihydrospiro[cyclohexane-1,1′-indene]-4-carboxylic acid], the Ki was determined as 99.2 nM.

Turning to `O=C(O)[C@]1(Nc2cccc(Cl)c2)CC[C@@]2(CC1)c1ccccc1CC2CCCOc1ccnc2c1CCC2F` (some centres unmarked) [Example 476, (1r,4r)-4-(3-chloroanilino)-2′-{3-[(7-fluoro-6,7-dihydro-5H-cyclopenta[b]pyridin-4-yl)oxy]propyl}-2′,3′-dihydrospiro[cyclohexane-1,1′-indene]-4-carboxylic acid], the Ki stood at 169 nM. For the compound `CC1CCc2nccc(OCCCC3Cc4ccccc4[C@]34CC[C@@](Nc3ccccc3)(C(=O)O)CC4)c21` (some centres unmarked) [Example 477, (1r,4r)-4-anilino-2′-{3-[(5-methyl-6,7-dihydro-5H-cyclopenta[b]pyridin-4-yl)oxy]propyl}-2′,3′-dihydrospiro[cyclohexane-1,1′-indene]-4-carboxylic acid], the Ki is 236 nM. As to `CC1CCc2nccc(OCCCC3Cc4ccccc4[C@]34CC[C@@](Nc3cccc(Cl)c3)(C(=O)O)CC4)c21` (some centres unmarked) [Example 478, (1r,4r)-4-(3-chloroanilino)-2′-{3-[(5-methyl-6,7-dihydro-5H-cyclopenta[b]pyridin-4-yl)oxy]propyl}-2′,3′-dihydrospiro[cyclohexane-1,1′-indene]-4-carboxylic acid], the Ki came out at 29.7 nM.

For the compound `Cn1ccc(OCCCC2Cc3ccccc3[C@]23CC[C@@](Nc2cccc(Cl)c2)(C(=O)O)CC3)cc1=O` (some centres unmarked) [Example 479, (1r,4r)-4-(3-chloroanilino)-2′-{3-[(1-methyl-2-oxo-1,2-dihydropyridin-4-yl)oxy]propyl}-2′,3′-dihydrospiro[cyclohexane-1,1′-indene]-4-carboxylic acid], the Ki was 809 nM. Regarding `CN1C(=O)Cc2cc(OCCCC3Cc4ccccc4[C@]34CC[C@@](Nc3cccc(Cl)c3)(C(=O)O)CC4)ccc21` (some centres unmarked) [Example 480, (1r,4r)-4-(3-chloroanilino)-2′-{3-[(1-methyl-2-oxo-2,3-dihydro-1H-indol-5-yl)oxy]propyl}-2′,3′-dihydrospiro[cyclohexane-1,1′-indene]-4-carboxylic acid], the Ki is 431 nM.

On to `O=C(O)[C@]1(Nc2cccc(Cl)c2)CC[C@]2(CC1)C(CC(CO)COc1ccnc3ccsc13)=Cc1ccccc12` (some centres unmarked) [Example 491, (1r,4r)-4-(3-chloroanilino)-2′-{2-(hydroxymethyl)-3-[(thieno[3,2-b]pyridin-7-yl)oxy]propyl}spiro[cyclohexane-1,1′-indene]-4-carboxylic acid], for which the Ki came out at 154 nM.

`O=C(O)[C@]1(Nc2cccc(Cl)c2)CC[C@]2(CC1)C(CC(COc1ccnc3ccsc13)COc1ccnc3ccsc13)=Cc1ccccc12` [Example 492, (1r,4r)-4-(3-chloroanilino)-2′-(3-[(thieno[3,2-b]pyridin-7-yl)oxy]-2-{[(thieno[3,2-b]pyridin-7-yl)oxy]methyl}propyl)spiro[cyclohexane-1,1′-indene]-4-carboxylic acid]: the Ki amounted to 93.7 nM. Regarding `COCC(COC)CC1=Cc2ccccc2[C@]12CC[C@@](Nc1cccc(Cl)c1)(C(=O)O)CC2` [Example 493, (1r,4r)-4-(3-chloroanilino)-2′-[3-methoxy-2-(methoxymethyl)propyl]spiro[cyclohexane-1,1′-indene]-4-carboxylic acid], the inhibition constant (Ki) was 1780 nM. As for `COCC(F)(F)CC1Cc2ccccc2[C@]12CC[C@@](Nc1cccc(Cl)c1)(C(=O)O)CC2` (some centres unmarked) [Example 502, (1r,4r)-4-(3-chloroanilino)-2′-(2,2-difluoro-3-methoxypropyl)-2′,3′-dihydrospiro[cyclohexane-1,1′-indene]-4-carboxylic acid], the figure is 77800 nM; as for `CC[C@H](COc1cccnc1)C[C@H]1Cc2ccccc2[C@]12CC[C@@](Nc1cccc(Cl)c1)(C(=O)O)CC2` [Example 540, (1r,2′S,4S)-4-(3-chloroanilino)-2′-[(2S)-2-{[(pyridin-3-yl)oxy]methyl}butyl]-2′,3′-dihydrospiro[cyclohexane-1,1′-indene]-4-carboxylic acid], 185 nM.

Consider `CC[C@H](COc1ccccc1)C[C@H]1Cc2ccccc2[C@]12CC[C@@](Nc1cccc(Cl)c1)(C(=O)O)CC2` [Example 541, (1r,2′S,4S)-4-(3-chloroanilino)-2′-[(2S)-2-(phenoxymethyl)butyl]-2′,3′-dihydrospiro[cyclohexane-1,1′-indene]-4-carboxylic acid], for which the Ki amounted to 1170 nM.

For `CC[C@H](COc1ccncc1)C[C@H]1Cc2ccccc2[C@]12CC[C@@](Nc1cccc(Cl)c1)(C(=O)O)CC2` [Example 542], the Ki was 187 nM. As to `C[C@@H](COc1ccccc1)CC1Cc2ccccc2[C@]12CC[C@@](Nc1cccc(Cl)c1)(C(=O)O)CC2` (stereo partly drawn) [Example 567, (1r,4R)-4-(3-chloroanilino)-2′-[(2R)-2-methyl-3-phenoxypropyl]-2′,3′-dihydrospiro[cyclohexane-1,1′-indene]-4-carboxylic acid], the Ki was determined as 155 nM. As for `Cc1cnccc1OC[C@H](C)CC1Cc2ccccc2[C@]12CC[C@@](Nc1cccc(Cl)c1)(C(=O)O)CC2` (stereo partly drawn) [Example 576, (1r,4R)-4-(3-chloroanilino)-2′-{(2R)-2-methyl-3-[(3-methylpyridin-4-yl)oxy]propyl}-2′,3′-dihydrospiro[cyclohexane-1,1′-indene]-4-carboxylic acid], the Ki worked out at 124 nM. Regarding `C[C@@H](COc1ccnc(CO)c1)C[C@H]1Cc2ccccc2[C@]12CC[C@@](Nc1cccc(Cl)c1)(C(=O)O)CC2` [Example 579, (1r,2′S,4S)-4-(3-chloroanilino)-2′-[(2R)-3-{[2-(hydroxymethyl)pyridin-4-yl]oxy}-2-methylpropyl]-2′,3′-dihydrospiro[cyclohexane-1,1′-indene]-4-carboxylic acid], the Ki came to 216 nM. `C[C@@H](COc1ccnc(C(F)F)c1)C[C@H]1Cc2ccccc2[C@]12CC[C@@](Nc1cccc(Cl)c1)(C(=O)O)CC2` [Example 581, (1r,2′S,4S)-4-(3-chloroanilino)-2′-[(2R)-3-{[2-(difluoromethyl)pyridin-4-yl]oxy}-2-methylpropyl]-2′,3′-dihydrospiro[cyclohexane-1,1′-indene]-4-carboxylic acid]: the Ki came to 47.5 nM. With `C[C@@H](COc1ccnc(N)c1)C[C@H]1Cc2ccccc2[C@]12CC[C@@](Nc1cccc(Cl)c1)(C(=O)O)CC2` [Example 583, (1r,2′S,4S)-2′-{(2R)-3-[(2-aminopyridin-4-yl)oxy]-2-methylpropyl}-4-(3-chloroanilino)-2′,3′-dihydrospiro[cclohexane-1,1′-indene]-4-carboxylic acid], the Ki came to 191 nM.

In the case of `C[C@H](COc1ccnc2ccsc12)CC1Cc2ccccc2[C@]12CC[C@@](Nc1cccc(Cl)c1)(C(=O)O)CC2` (stereo partly drawn) [Example 592, (1r,4S)-4-(3-chloroanilino)-2′-{(2S)-2-methyl-3-[(thieno[3,2-b]pyridin-7-yl)oxy]propyl}-2′,3′-dihydrospiro[cyclohexane-1,1′-indene]-4-carboxylic acid], the Ki is 710 nM.
